Data from patent US8597632B2, “Anionic oligosaccharide conjugates” (Glycan Biosciences LLC, priority 2008, dated 2013).
Marks after values point to notes of the source that are not given here.

Legend:
Type in all cases: in vivo
[1] = test system: allergic rhinitis model in the guinea pig; assay: Allergic rhinitis model in the guinea pig (OVA); conditions: for % inhibition of protein content of the nasal lavage fluid (plasma exudation): 5 mg/kg intranasal 30 min before OVA, 8 hours after challenge; for eosinophil and neutrophil infiltration into nasal lavage fluid: 5 mg/kg, 8 hours after challenge (FIG. 3)
mouse model of emphysema = assay: Mouse model of emphysema / COPD (cigarette smoke)
Method: A mouse model of emphysema was used. Acute or chronic exposure of mice to cigarette smoke lead to lung responses that in part mimic the inflammatory and structural changes observed in COPD. In this model male C57Bl/6J mice are subjected to acute or chronic smoke exposure, with normal room air being the control situation. In the acute study mice were exposed to either room air or to the smoke of five cigarettes (approximately 12 mg of tar and 0.9 mg of nicotine) for 20 minutes. In the chronic study mice were exposed to either room air or to the smoke of three cigarettes/day for 5 days/week for 6 months. The 4 groups of mice were then further divided so that mice within each group also received various anionic oligosaccharide conjugates via an inhaled route.
In the acute exposure groups of mice anionic oligosaccharide conjugates were given 30 minutes before exposure to cigarette smoke. Assessment of the efficacy of the drug for mice in the acute exposure groups involved assessment of trolox equivalent anti-oxidant capacity of the bronchoalveolar lavage fluid (BALF) at the end of smoke exposure. The BALF was examined for cytokines and chemokines that are associated with an inflammatory response. The levels of these agents were determined at 4 hours after exposure and at 24 hours after cigarette smoke exposure. A range of cytokines and chemokines was measured. These included: IL-1α, IL-1β, IL-2, IL-3, IL-4, IL-5, IL-6, IL-10, IL-12, RANTES, MIP-1α, cytokine-induced neutrophil chemoattractant (KC), TNF-α and IFN-γ). A differential cell count of the cells in the BALF was also determined.
The animals in the chronic study received the anionic oligosaccharide conjugates (including ID 9) once a day for the duration of the experiment. At the completion of the experiment animals were killed and the lungs fixed intratracheally with formalin (5%) and lung volume was measured by water displacement. […] The level of desmosine in the lung tissue was also determined. […]

Guinea-pig anaphylaxis = Guinea-pig anaphylaxis model (OVA); conditions: for % of the animals died (anaphylaxis): 5 mg/kg intranasal 30 min prior to OVA
Description: Guinea-pig anaphylaxis has for many years been considered the classical example of anaphylaxis, in contrast to other species (e.g. mice) that completely lack anaphylactic responses after allergen inhalation. Anaphylactic shock is believed to be due to liberation of histamine with subsequent contraction of smooth muscle after the inhalation of antigen into the airway and lungs. Contraction of the bronchial musculature completely shuts off the alveoli and prevents exhalation of air, and the animals die of asphyxia. In guinea-pigs allergen doses that are high enough to produce a significant late-phase responses (i.e. cellular eosinophilia, late phase exudation) inevitably also give rise to prior strong acute reactions that are so intense that some animals may die in acute airway constriction.
In this model the guinea pigs were sensitized to ovalbumin (OVA) twice (on days 0 and 7) by an intraperitoneal injection of 0.5 mL saline containing 100 mg Al(OH)3 and 2 μg OVA. Three weeks after the last sensitization, animals were anaesthetized and the exposure of the nasal cavity to allergen was performed by dropping OVA solution at 2 mg/mL into bilateral nasal cavities (20 μl per nasal cavity). For the negative control the animals received sensitization and challenge with saline. The animals are pretreated with either vehicle or drug (anionic oligosaccharide conjugates or Budesonide) 30 min prior to intranasal instillation of OVA. Vehicle or drugs are administered, 25 μl-50 μl/nostril. A comparison of the anionic oligosaccharide conjugates with Budesonide, as the reference compound, is included. In this study Budesonide at 0.65 mg/kg was not effective at preventing anaphylaxis as 70% of the animals in this group died by acute airway constriction.

[2] = test system: rat model of acute lung injury and ADRS; assay: Rat model of acute lung injury and ARDS (LPS); conditions: intra-tracheal 0.5 and 2.5 mg/kg, 30 minutes before LPS
Description: A rat model of acute lung injury and ADRS was used (Jansson, Lung 182:1-9, 2004). The model is based on the understanding that endotoxin found in common pathogens (e.g. bacteria) can lead to the development of ARDS, septic shock and multiple organ dysfunction syndrome in the clinical situation. Lipopolysaccharide (LPS), a component of the outer membrane of gram-negative bacteria is the prototypical example of endotoxin and exposure of the respiratory tract of rats to LPS can be used as a model of acute lung inflammation and ARDS. […]
Excised lung gas volume (ELGV) is measured by Archimedes' principle and is based on the stable amount of air trapped within the excised lungs at a transpulmonary pressure of 0 cmH2O. […] A density determination kit (P3000, Mettler-Toledo GmbH, Sweden) and optional density determination software for the balance were used on the basis of the principle that every solid body immersed in fluid loses weight, and is expressed as g/cm^3. […] ELGV is determined by the difference between bracket weight and lung buoyancy in the liquid. […] Indication of lung tissue edema was calculated by the difference between lung tissue weight outside the beaker and bracket weight. The lung tissue density was determined by the ratio of the lung weight (difference between lung tissue weight outside the beaker and holder weight) and the air volume within the lung (ELGV). […]

[3] = test system: guinea pig model of asthma; assay: Guinea pig model of asthma (OVA)
[4] = 0.1 mg/kg pretreatment (FIG. 5)
[5] = drug 0.1 mg/kg intra-tracheal, MCh (10 mg/mL)
[6] = drug 0.1 mg/kg intra-tracheal, MCh (30 mg/mL)
[7] = drug 2.5 mg/kg intra-tracheal, MCh (10 mg/mL)
[8] = drug 2.5 mg/kg intra-tracheal, MCh (30 mg/mL)

| Molecule | % inhibition of protein content of the nasal lavage fluid (plasma exudation) [1] [%] | eosinophil and neutrophil infiltration into nasal lavage fluid [1] | numbers of neutrophils in BALF (mouse model of emphysema; acute cigarette smoke exposure) | cellular infiltrate into BALF (mouse model of emphysema; acute cigarette smoke exposure, inhaled 30 minutes before exposure) | anti-inflammatory activity in COPD model (mouse model of emphysema; chronic smoke exposure, once a day) | % of the animals died (anaphylaxis) (Guinea-pig anaphylaxis) [%] | inhibition of neutrophil infiltration (BAL) [2] | inhibition of OVA induced leukocyte influx in BAL [3, 4] [%] | inhibition of OVA induced leukocyte influx in BAL ([3]; 2.5 mg/kg pretreatment (FIG. 5)) [%] | AHR: Cdyn, % increase from that of the positive control [3, 5] [%**] | AHR: RL, % inhibition from that of the positive control [3, 5] | AHR: Cdyn, % increase from that of the positive control [3, 6] [%**] | AHR: RL, % inhibition from that of the positive control [3, 6] [%**] | AHR: Cdyn, % increase from that of the positive control [3, 7] | AHR: RL, % inhibition from that of the positive control [3, 7] | AHR: Cdyn, % increase from that of the positive control [3, 8] [%**] | AHR: RL, % inhibition from that of the positive control [3, 8] [%**] | antigen induced elevated protein content of BAL ([3]; even at 0.1 mg/kg (FIG. 4)) | lung function: development of Cdyn and RL ([3]; methacholine evoked bronchoconstriction, 8 hours after provocation) | % of the animals died by acute airway constriction (Guinea-pig anaphylaxis; 0.65 mg/kg intranasal 30 min prior to OVA) [%] |
| --- | --- | --- | --- | --- | --- | --- | --- | --- | --- | --- | --- | --- | --- | --- | --- | --- | --- | --- | --- | --- |
| (Maltopentaose)-Et4-(Maltopentaose) [ID 9] | 51.5 | particularly effective at blocking not only eosinophil infiltration but also neutrophil infiltration | significantly attenuated | decreased the cellular infiltrate into BALF | could act as anti-inflammatory agents | 35 | marked | 62 | 85 | 76.6 | 75.3%* | 90 | 84.4 | 68.7%* | 80.5%** | 128.4 | 99.5 | very effectively inhibits the elevated protein content of BAL | inhibited the development of both Cdyn and RL | – |
| CCCC1O[C@@H]2C[C@H]3[C@@H]4CCC5=CC(=O)C=C[C@]5(C)[C@H]4[C@@H](O)C[C@]3(C)[C@]2(C(=O)CO)O1 (some centres unmarked) [Budesonide, reference compound] | – | – | – | – | – | – | – | 76 | – | 97.2 | 86.5%** | 116.2 | 105 | 19.7% | −89.4% | 70.9 | 98.9 | – | – | 70 |
| (Maltopentaose)-(Et2)-(Maltopentaose) [ID 7] | 91.4 | only blocked eosinophils | – | – | – | 27 | – | – | – | – | – | – | – | – | – | – | – | – | – | – |
